From US9012402B1, “Gel for topical delivery of NSAIDs to provide relief of musculoskeletal pain and methods for its preparation” (priority 2014, dated 2015)

Columns and labels:
[1] = cited from earlier work
[2] = topical, average of seven clinical studies; cited from earlier work
[3] = Fraction of drug unionized at a given pH; type: physicochemical

| fraction unionized ([3]; at pH 3.5) | fraction unionized ([3]; at pH 6.0) | fraction in the unionized form ([3]; pH of 5 or less) | fraction in unionized form ([3]; pH of 6.5) | SMILES | Log P (octanol: water) [1] | study participants who experienced relief of acute pain [2] |
| --- | --- | --- | --- | --- | --- | --- |
| – | – | – | – | CC(C(=O)O)c1cccc(C(=O)c2ccccc2)c1 (stereo not shown) [Ketoprofen, 2-(3-benzoylphenyl)-propionic acid] | 2.68 | 73% |
| – | – | – | – | O=C(O)Cc1ccccc1Nc1c(Cl)cccc1Cl [diclofenac] | – | 52% |
| 88.8% | 2.45% | > 20% | 0.79% | CC(C)Cc1ccc(C(C)C(=O)O)cc1 (stereo not shown) [ibuprofen] | – | – |
